Entries after “also recorded” stand apart in the source; their conditions may differ. Like-named read-outs stand apart in the source and are kept apart here.
Legend:
[1] = design: method as in Woosley and Romer, 1999; key: 1: Known risk; 2: Conditional risk; NC: Not classified, i.e., evidence was not enough to add it to any risk category; settings: CredibleMeds category; ref Woosley and Romer, 1999; cited from earlier work
hKv4.3 = target: T1, hKv4.3 (Homo sapiens, UniProt Q9UK17); test: Automated patch clamp (QPatch), transient outward K+ current Ito; assay type: cell-based; settings: room temperature; dash = no effect or IC50 much higher than tested concentrations
T1 construct: expressed in transfected cells; host or cells: HEK-293
T1 sequence (Q9UK17 1-655): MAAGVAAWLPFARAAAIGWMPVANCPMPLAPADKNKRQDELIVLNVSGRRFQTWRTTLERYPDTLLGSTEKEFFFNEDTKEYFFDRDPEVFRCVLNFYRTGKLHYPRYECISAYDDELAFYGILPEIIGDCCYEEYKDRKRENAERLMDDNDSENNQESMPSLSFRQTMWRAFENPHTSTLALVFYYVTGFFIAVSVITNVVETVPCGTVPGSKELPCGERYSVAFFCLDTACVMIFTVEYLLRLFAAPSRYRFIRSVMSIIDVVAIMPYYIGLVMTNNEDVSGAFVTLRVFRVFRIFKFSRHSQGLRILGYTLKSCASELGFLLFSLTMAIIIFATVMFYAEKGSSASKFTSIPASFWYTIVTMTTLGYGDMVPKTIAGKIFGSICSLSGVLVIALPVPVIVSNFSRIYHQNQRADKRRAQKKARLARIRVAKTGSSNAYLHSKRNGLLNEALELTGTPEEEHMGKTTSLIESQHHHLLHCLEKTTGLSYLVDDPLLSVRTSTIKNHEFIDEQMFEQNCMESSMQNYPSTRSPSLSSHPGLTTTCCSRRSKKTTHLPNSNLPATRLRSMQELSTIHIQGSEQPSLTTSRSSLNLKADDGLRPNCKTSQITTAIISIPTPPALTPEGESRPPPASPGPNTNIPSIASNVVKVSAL

rabbit Purkinje fibers = test: In vitro drug assay on rabbit Purkinje fibers (microelectrode AP recordings); settings: for EADs occurrence in rabbit experiments / Risk classification based on EADs occurrence, in vitro rabbit: slow pacing; for EADs occurrence in rabbit experiments: across tested concentrations; for Risk classification based on EADs occurrence, in vitro rabbit: compared with clinical risk; for ΔAPD90 Exp: Normal pacing (1 Hz)
hCav1.2 [2] = target: T2, hCav1.2 (Homo sapiens, UniProt Q13936); test: Automated patch clamp (QPatch), L-type Ca2+ current ICaL; assay type: cell-based; settings: room temperature; dash = no effect or IC50 much higher than tested concentrations
T2 construct: expressed in transfected cells; host or cells: CHO
T2 sequence (Q13936 whole entry): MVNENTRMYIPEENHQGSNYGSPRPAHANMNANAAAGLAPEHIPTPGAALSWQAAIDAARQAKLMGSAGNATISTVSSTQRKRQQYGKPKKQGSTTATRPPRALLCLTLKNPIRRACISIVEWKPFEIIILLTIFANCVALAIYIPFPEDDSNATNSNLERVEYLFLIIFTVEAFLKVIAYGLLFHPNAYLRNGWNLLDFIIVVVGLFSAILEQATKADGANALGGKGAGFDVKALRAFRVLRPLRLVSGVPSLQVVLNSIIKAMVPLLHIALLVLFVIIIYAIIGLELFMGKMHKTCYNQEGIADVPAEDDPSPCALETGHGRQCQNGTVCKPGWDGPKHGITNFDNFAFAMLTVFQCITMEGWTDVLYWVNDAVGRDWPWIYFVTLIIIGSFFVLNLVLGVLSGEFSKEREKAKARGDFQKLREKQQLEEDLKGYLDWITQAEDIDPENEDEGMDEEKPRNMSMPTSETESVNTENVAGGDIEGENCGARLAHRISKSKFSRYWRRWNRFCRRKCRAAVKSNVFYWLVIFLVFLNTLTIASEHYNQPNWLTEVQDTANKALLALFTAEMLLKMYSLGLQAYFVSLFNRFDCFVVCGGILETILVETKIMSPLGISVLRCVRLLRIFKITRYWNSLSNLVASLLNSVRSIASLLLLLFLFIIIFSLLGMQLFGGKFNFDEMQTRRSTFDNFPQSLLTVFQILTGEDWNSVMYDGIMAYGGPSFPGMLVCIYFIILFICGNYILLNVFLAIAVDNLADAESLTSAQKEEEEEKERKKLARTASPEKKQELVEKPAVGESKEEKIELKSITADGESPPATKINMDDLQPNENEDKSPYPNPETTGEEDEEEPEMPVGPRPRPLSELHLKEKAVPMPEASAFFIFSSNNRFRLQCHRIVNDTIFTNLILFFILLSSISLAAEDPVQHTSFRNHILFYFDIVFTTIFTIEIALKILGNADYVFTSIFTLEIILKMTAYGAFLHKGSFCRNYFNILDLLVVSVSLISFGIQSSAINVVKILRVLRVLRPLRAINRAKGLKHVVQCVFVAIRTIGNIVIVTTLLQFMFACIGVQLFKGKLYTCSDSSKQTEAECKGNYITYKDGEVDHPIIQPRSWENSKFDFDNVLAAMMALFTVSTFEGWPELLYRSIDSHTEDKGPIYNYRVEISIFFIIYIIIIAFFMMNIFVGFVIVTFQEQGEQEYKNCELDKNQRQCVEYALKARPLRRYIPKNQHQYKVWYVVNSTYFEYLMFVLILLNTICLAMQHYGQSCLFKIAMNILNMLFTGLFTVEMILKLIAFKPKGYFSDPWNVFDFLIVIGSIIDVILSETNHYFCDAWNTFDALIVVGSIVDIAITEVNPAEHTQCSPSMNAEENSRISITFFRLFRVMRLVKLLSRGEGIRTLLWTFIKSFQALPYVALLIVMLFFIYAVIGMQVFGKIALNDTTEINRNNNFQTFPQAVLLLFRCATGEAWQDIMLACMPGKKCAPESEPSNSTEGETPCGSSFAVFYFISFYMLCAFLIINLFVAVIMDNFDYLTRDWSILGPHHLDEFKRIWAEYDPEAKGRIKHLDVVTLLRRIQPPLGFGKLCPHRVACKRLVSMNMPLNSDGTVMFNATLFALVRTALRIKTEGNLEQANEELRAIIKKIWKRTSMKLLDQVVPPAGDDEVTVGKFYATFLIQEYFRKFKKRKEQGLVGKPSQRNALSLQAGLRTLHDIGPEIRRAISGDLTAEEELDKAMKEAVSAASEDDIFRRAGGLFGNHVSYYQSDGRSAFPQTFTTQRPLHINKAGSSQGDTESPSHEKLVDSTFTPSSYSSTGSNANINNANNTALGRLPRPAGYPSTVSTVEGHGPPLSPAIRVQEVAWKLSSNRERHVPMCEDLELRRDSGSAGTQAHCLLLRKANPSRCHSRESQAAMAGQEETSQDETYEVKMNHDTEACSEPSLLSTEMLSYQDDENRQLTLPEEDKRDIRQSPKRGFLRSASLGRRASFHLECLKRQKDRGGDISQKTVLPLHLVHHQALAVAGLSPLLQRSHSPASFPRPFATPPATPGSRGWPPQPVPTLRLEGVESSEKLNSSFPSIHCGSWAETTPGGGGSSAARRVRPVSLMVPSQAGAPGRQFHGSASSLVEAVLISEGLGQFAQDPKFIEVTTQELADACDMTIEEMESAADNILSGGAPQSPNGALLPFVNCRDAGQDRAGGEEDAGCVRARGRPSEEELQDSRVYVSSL

rabbit hearts = settings: cited from earlier work
hiPSC-CMs = settings: 100 µM; ref Blinova et al., 2018; Yu et al., 2019; cited from earlier work
hNav1.5 [3] = target: T3, hNav1.5 (Homo sapiens, UniProt Q14524); design: method as in Crumb et al., 2016; settings: ref Crumb et al., 2016; cited from earlier work
T3 construct: expressed in transfected cells; host or cells: HEK-293
T3 sequence (Q14524 whole entry): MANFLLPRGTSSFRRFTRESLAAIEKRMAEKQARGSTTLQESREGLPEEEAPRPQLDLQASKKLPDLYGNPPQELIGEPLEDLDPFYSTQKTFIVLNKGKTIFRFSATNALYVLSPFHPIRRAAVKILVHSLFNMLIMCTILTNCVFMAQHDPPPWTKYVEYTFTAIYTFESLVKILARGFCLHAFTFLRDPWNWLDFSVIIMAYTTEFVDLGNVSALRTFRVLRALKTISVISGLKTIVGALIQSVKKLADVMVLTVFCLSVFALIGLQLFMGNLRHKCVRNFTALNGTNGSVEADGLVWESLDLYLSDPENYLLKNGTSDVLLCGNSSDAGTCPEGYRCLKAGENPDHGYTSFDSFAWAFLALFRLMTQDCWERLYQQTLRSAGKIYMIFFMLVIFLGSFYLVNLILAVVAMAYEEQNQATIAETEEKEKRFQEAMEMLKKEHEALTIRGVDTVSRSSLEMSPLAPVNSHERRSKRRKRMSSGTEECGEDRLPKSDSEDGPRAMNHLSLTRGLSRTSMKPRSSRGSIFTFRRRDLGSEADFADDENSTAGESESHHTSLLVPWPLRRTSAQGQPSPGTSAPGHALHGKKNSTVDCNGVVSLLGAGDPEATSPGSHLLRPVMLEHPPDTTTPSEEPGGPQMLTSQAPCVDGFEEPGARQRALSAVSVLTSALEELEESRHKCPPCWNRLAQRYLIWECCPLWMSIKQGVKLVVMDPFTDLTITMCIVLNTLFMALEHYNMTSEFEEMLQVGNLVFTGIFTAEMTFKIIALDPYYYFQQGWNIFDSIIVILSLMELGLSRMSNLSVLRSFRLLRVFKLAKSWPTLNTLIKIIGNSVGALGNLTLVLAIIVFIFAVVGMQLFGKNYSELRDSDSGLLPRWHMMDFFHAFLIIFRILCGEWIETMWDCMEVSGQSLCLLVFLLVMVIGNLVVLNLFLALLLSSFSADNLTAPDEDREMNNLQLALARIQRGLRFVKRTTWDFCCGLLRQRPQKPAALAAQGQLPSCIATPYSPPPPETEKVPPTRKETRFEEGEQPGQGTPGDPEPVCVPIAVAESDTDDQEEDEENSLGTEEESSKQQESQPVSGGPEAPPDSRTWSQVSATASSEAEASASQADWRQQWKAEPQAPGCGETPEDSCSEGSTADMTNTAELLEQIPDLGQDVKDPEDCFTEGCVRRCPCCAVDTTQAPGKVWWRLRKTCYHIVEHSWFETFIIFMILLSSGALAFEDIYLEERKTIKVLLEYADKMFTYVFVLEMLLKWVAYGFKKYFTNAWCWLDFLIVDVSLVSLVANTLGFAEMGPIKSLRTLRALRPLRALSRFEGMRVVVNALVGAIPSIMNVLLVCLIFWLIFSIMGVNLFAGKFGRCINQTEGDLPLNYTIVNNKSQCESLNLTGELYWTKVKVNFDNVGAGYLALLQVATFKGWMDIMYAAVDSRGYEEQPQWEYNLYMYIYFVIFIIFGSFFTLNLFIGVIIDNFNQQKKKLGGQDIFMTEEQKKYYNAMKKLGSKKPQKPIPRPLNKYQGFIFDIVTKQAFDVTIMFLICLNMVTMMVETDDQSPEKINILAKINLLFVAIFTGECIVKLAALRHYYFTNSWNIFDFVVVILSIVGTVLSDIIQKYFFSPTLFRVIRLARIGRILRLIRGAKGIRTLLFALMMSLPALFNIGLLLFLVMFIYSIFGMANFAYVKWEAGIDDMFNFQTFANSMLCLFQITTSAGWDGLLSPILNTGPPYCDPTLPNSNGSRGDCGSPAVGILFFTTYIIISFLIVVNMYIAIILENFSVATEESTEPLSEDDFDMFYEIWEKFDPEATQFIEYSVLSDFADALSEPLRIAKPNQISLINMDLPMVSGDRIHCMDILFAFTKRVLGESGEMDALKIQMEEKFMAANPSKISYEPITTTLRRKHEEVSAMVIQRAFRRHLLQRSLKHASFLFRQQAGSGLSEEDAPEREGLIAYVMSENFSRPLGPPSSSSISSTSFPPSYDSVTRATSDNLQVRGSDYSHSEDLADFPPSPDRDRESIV

hCav1.2 [4] = target: T2, hCav1.2; settings: ref Crumb et al., 2016; cited from earlier work
hERG = target: T4, hERG (Homo sapiens, UniProt Q12809); settings: ref Crumb et al., 2016; cited from earlier work
T4 construct: host or cells: CHO (hERG-CHO) and HEK-293 stably transfected with hERG cDNA

[5] = design: method as in Démolis et al., 2003; settings: therapeutic doses; ref Démolis et al., 2003; cited from earlier work
hNav1.5 [6] = target: T3, hNav1.5; test: Automated patch clamp (QPatch), fast Na+ current INa; assay type: cell-based; settings: room temperature; dash = no effect or IC50 much higher than tested concentrations

| Compound | IC50 (hKv4.3) | EADs occurrence in rabbit experiments (rabbit Purkinje fibers) | Risk classification based on EADs occurrence, in vitro rabbit (rabbit Purkinje fibers) | TdP risk [1] | other results |
| --- | --- | --- | --- | --- | --- |
| Cc1nc2n(c(=O)c1CCN1CCC(c3noc4cc(F)ccc34)CC1)CCCC2 [Risperidone] |  |  |  | 2 |  |
| COc1ccc([C@@H]2Sc3ccccc3N(CCN(C)C)C(=O)[C@@H]2OC(C)=O)cc1 [Diltiazem] | 84 µM | did not induce any EADs; also recorded: did not induce any repolarization abnormalities | correctly classified as safe |  |  |
| CC(C)NCC(O)c1ccc(NS(C)(=O)=O)cc1 (stereo not drawn) [Sotalol] |  |  |  |  | ΔAPD90 Exp (rabbit Purkinje fibers; 30 μM): 96% |
| CC[C@H]1OC(=O)[C@H](C)[C@@H](O[C@H]2C[C@@](C)(OC)[C@@H](O)[C@H](C)O2)[C@H](C)[C@@H](O[C@@H]2O[C@H](C)C[C@H](N(C)C)[C@H]2O)[C@](C)(OC)C[C@@H](C)C(=O)[C@H](C)[C@@H](O)[C@]1(C)O [Clarithromycin] |  |  |  | 1 | IC50 (hNav1.5 [3]): 163 µM; IC50 (hCav1.2 [4]): 103 µM; IC50 (hERG): 62.5 µM; QT prolongation [5]: no QT prolongation at therapeutic doses; ΔAPD90 Exp (rabbit Purkinje fibers; 30 μM): 51% |
| CC(C)N(CCC(C(N)=O)(c1ccccc1)c1ccccn1)C(C)C (stereo not drawn) [Disopyramide] |  |  |  | 1 | IC50 (hCav1.2 [2]): 114 µM |
| C=C[C@H]1C[N@@]2CC[C@H]1C[C@@H]2[C@@H](O)c1ccnc2ccc(OC)cc12 [Quinidine] |  |  |  | 1 |  |
| CN(CCOc1ccc(NS(C)(=O)=O)cc1)CCc1ccc(NS(C)(=O)=O)cc1 [Dofetilide] |  |  |  | 1 | ΔAPD90 Exp (rabbit Purkinje fibers; 0.01 μM): 113% |

Further lines, with some results ahead:

| IC50 (hKv4.3) | EADs occurrence in rabbit experiments (rabbit Purkinje fibers) | Risk classification based on EADs occurrence, in vitro rabbit (rabbit Purkinje fibers) | Compound | TdP risk [1] | other results |
| --- | --- | --- | --- | --- | --- |
| 68 µM | no EADs were observed | misclassified | CC(C)(C)c1ccc(C(O)CCCN2CCC(C(O)(c3ccccc3)c3ccccc3)CC2)cc1 (stereo not drawn) [Terfenadine] |  | Risk classification based on mean APD90 prolongation >10%, in vitro rabbit (rabbit Purkinje fibers; 1 Hz): false negative; AP prolongation in vitro rabbit experiments (rabbit Purkinje fibers; APD90 at 1 Hz, maximum over tested concentrations): up to 7% |
|  | induced EADs |  | COc1cc(N)c(Cl)cc1C(=O)NC1CCN(CCCOc2ccc(F)cc2)CC1OC (stereo not drawn) [Cisapride] | 1 | IC50 (hCav1.2 [2]): 33 µM |
| 31 µM | did not induce any EADs | correctly classified as safe | COC(=O)C1=C(C)NC(C)=C(C(=O)OC)C1c1ccccc1[N+](=O)[O-] [Nifedipine] |  |  |
|  | no EADs were observed | misclassified | COc1ccccc1OCC(O)CN1CCN(CC(=O)Nc2c(C)cccc2C)CC1 (stereo not drawn) [Ranolazine] | 2 | IC50 (hCav1.2 [2]): 156 µM; Effect in rabbit hearts (rabbit hearts; 10 µM, ref Frommeyer et al., 2012, Sossalla et al., 2014): anti-torsadogenic effects; EADs in hiPSC-CMs (hiPSC-CMs): induced EADs |
| 22 µM | induced EADs |  | COc1ccc(CCN2CCC(Nc3nc4ccccc4n3Cc3ccc(F)cc3)CC2)cc1 [Astemizole] | 1 |  |
| 13 µM | no EADs were observed | misclassified | CC(C)COCC(CN(Cc1ccccc1)c1ccccc1)N1CCCC1 (stereo not drawn) [Bepridil] | 1 | IC50 (hNav1.5 [6]): 3.1 µM; EADs in rabbit hearts (rabbit hearts; up to 10 µM, ref Anno et al., 1984, Hondeghem et al., 2003): did not induce EADs |

Source: PMC9581132, “Cross clinical-experimental-computational qualification of in silico drug trials on human cardiac purkinje cells for proarrhythmia risk prediction” (Frontiers in Toxicology, 2022)
